Data reported in publication PMC7849821, “The deubiquitylase USP9X controls ribosomal stalling” (The Journal of Cell Biology, 2021).

Experiments:
CEP55 = test: MSD ELISA assay for CEP55 reduction in BxPC3 cells; format: cell-based; conditions: Homo sapiens, BXPC-3, BxPC3 pancreatic cancer cells, 6 h exposure, read-out: IC50 for modulation (reduction) of CEP55 expression
Experimental: BxPC3 cells were seeded in 96-well plates and exposed to FT709 (20 µM top concentration, 1:2 serial dilutions) for 6 h. Cell lysates were prepared in RIPA buffer and stored at −80°C until analysis. Samples were analyzed by an MSD ELISA assay (Pacific Biolabs) using a CEP55 antibody (Novux; 1:500 dilution in PBS) captured overnight at 4°C, 30 µl lysates per well, 30 µl of CEP55 antibody (CST; 81693) diluted 1:2,000 in 1% blocker A/PBS and 30 µl per well of a 1:4,000 diluted goat anti-rabbit sulfo-tag, 1% blocker A/PBS. Plates were read on a MSD Sector Imager 2400. Results were transformed as percentage DMSO controls and curves fitted using a nonlinear regression to determine the IC50. Results presented are based on duplicate values.

ZNF598, MKRN1 and MKRN2 = test: Immunoblot of ZNF598 and Makorins in FT709-treated (KAAA)21 WT cells; format: cell-based; conditions: (KAAA)21 WT HEK293 cells, indicated concentrations for 48 h
Experimental: (§1) Cultured cells were lysed for 10 min at 4°C in RIPA buffer (10 mM Tris-HCl, pH 7.5, 150 mM NaCl, 1% Triton X-100, 0.1% SDS, and 1% sodium deoxycholate) supplemented with mammalian protease inhibitor cocktail (Sigma-Aldrich). Proteins were resolved using SDS-PAGE (Invitrogen NuPage gel 4–12%), transferred to nitrocellulose membrane, blocked in 5% fat-free milk or 5% bovine serum albumin in TBS supplemented with Tween-20, and probed with primary antibodies overnight. Visualization and quantification of Western blots were performed using IRdye 800CW and 680LT coupled secondary antibodies and an Odyssey infrared scanner (LI-COR Biosciences).

ZNF598 = test: Immunoblot of ZNF598 in FT709-treated HCT116 cells; format: cell-based; conditions: 10 µM, 4 or 24 h
Experimental: as §1

ZNF598 and MKRN2 = test: Immunoblot of FT709 responsive markers in A549 and U2OS cells; format: cell-based; conditions: 10 µM
Experimental: as §1

[1] = test system: HEK293 Flp-In T-Rex GFP-P2A-(KAAA)21-P2A-RFP WT cells; test: Fluorescent ribosomal stalling reporter, FACS RFP:GFP ratio; format: cell-based; conditions: 10 µM for 72 h
Description: The HEK293 cells used in this study (HEK293-Flp-In TREX GFP-P2A-[K^AAA]21 -P2A-RFP) have been engineered to express a reporter system for terminal ribosomal stalling ([Juszkiewicz and Hegde, 2017]). The reporter cassette contains GFP (N-terminal) and RFP (C-terminal) separated by a FLAG-tagged stalling reporter (SR) incorporating a polyA stretch of twenty-one codons (K^AAA)21 (Fig. 5 B). This is flanked by viral P2A sequences, at which ribosomes skip formation of a peptide bond, without interrupting translation elongation. Consequently, unimpaired translation generates 3 proteins (GFP, FLAG-SR, RFP) in equal amounts. Stalling at the FLAG-SR aborts translation before RFP synthesis, leading to a substoichiometric RFP:GFP ratio. Failure to effectively respond to stalled ribosomes allows eventual read-through and a consequent rise in the RFP:GFP ratio that can be assessed by fluorescence-activated cell sorting (Fig. 5 B, schematic diagram; [Juszkiewicz and Hegde, 2017]). […] We also analyzed three of the cell populations treated with individual gRNAs as represented in Fig. 5 A that show varying effectiveness for USP9X depletion. […] We propose that USP9X inhibition may promote read-through by a combined effect on each of these RING E3 ligases linked to the ribosomal quality control pathway. […]

HCT116 cells = test: SILAC-based proteome analysis of FT709-treated HCT116 cells; format: cell-based; conditions: 10 µM, 24 h
Experimental: HCT116 cells were grown in SILAC DMEM supplemented with 10% dialyzed FBS (Dundee Cell Products) at 37°C and 5% CO2. To generate light, medium, and heavy stable isotope-labeled cells, arginine- and lysine-free DMEM medium was supplemented with 200 mg/liter L-proline and either L-lysine (Lys0) together with L-arginine (Arg0; light), L-lysine-^2H4 (Lys4) with L-arginine-U-^13C6 (Arg6; medium), or L-lysine-U-^13C6-^15N2 (Lys8) with L-arginine-U-^13C6-^15N4 (Arg10; heavy) at final concentrations of 84 mg/liter for the arginine and 146 mg/liter for the lysine until fully metabolically labeled. […] Relative protein concentrations of the lysates were determined using a bicinchoninic acid assay (Thermo Fisher Scientific), and light-, medium-, and heavy-labeled lysates were combined in a 1:1:1 ratio.
Protein extracts (1.2–1.5 mg) containing SDS were reduced with 5 mM dithiothreitol, alkylated with 20 mM iodoacetamide, and then subjected to methanol/chloroform extraction. […] Peptide fractions were analyzed in technical replicates by nano-UPLC-MS/MS using a Dionex Ultimate 3000 nano UPLC with EASY spray column (75 µm × 500 mm, 2 µm particle size; Thermo Fisher Scientific) with a 60-min gradient of 2% acetonitrile/0.1% formic acid/5% DMSO to 35% acetonitrile/0.1% formic acid/5% DMSO at a flow rate of ∼250 nl/min. […]

USP2 = USP2 (Homo sapiens, UniProt O75604); test: DUB biochemical assay (Ub-rhodamine cleavage); conditions: Ub-rhodamine substrate, DUB panel Fig. S2 A
Experimental: (§2) The assay was performed in a final volume of 6 µl in assay buffer containing 20 mM Tris buffer, pH 8, 0.03% bovine γ-globulin, 0.01% Triton X-100, and 1 mM glutathione. Nanoliter quantities of 10-point, threefold serial dilutions in DMSO were predispensed into 1,536 assay plates for a final top concentration between […] and subsequent half-log dilutions. 2× DUB (0.025 nM final concentration) was added and preincubated for 30 min at room temperature. 2× ubiquitin (Ub)-rhodamine (25 nM final concentration) was added to initiate the reaction. Fluorescence readings (excitation: 485 nm, emission: 535 nm) were acquired over 12 min (Envision reader). The slope of the data from each point was used to determine IC50.
(§3) For all assays, data were reported as percent inhibition compared with control wells. IC50 values were determined by curve fitting of the standard four-parameter logistic fitting algorithm included in the Activity Base software package IDBS XE Designer Model205. Data were fitted using the Levenburg–Marquardt algorithm.

USP11 = USP11 (Homo sapiens, UniProt P51784); test: DUB biochemical assay (Ub-rhodamine cleavage); conditions: Ub-rhodamine substrate, DUB panel Fig. S2 A
Experimental: as §2, §3

USP18 = USP18 (Homo sapiens, UniProt Q9UMW8); test: DUB biochemical assay (Ub-rhodamine cleavage); conditions: Ub-rhodamine substrate, DUB panel Fig. S2 A
Experimental: as §2, §3

USP10 = USP10 (Homo sapiens, UniProt Q14694); test: DUB biochemical assay (Ub-rhodamine cleavage); conditions: Ub-rhodamine substrate, DUB panel Fig. S2 A
Experimental: as §2, §3

USP12 = USP12 (Homo sapiens, UniProt O75317); test: DUB biochemical assay (Ub-rhodamine cleavage); conditions: Ub-rhodamine substrate, DUB panel Fig. S2 A
Experimental: as §2, §3

USP33 = USP33 (Homo sapiens, UniProt Q8TEY7); test: DUB biochemical assay (Ub-rhodamine cleavage); conditions: Ub-rhodamine substrate, DUB panel Fig. S2 A
Experimental: as §2, §3

USP47 = USP47 (Homo sapiens, UniProt Q96K76); test: DUB biochemical assay (Ub-rhodamine cleavage); conditions: Ub-rhodamine substrate, DUB panel Fig. S2 A
Experimental: as §2, §3

USP36 = USP36 (Homo sapiens, UniProt Q9P275); test: DUB biochemical assay (Ub-rhodamine cleavage); conditions: Ub-rhodamine substrate, DUB panel Fig. S2 A
Experimental: as §2, §3

USP24 = USP24 (Homo sapiens, UniProt Q9UPU5); test: DUB biochemical assay (Ub-rhodamine cleavage); conditions: Ub-rhodamine substrate, DUB panel Fig. S2 A
Experimental: as §2, §3

USP1 = USP1 (Homo sapiens, UniProt O94782); test: DUB biochemical assay (Ub-rhodamine cleavage); conditions: Ub-rhodamine substrate, DUB panel Fig. S2 A
Experimental: as §2, §3

USP22 = USP22 (Homo sapiens, UniProt Q9UPT9); test: DUB biochemical assay (Ub-rhodamine cleavage); conditions: Ub-rhodamine substrate, DUB panel Fig. S2 A
Experimental: as §2, §3

USP4 = USP4 (Homo sapiens, UniProt Q13107); test: DUB biochemical assay (Ub-rhodamine cleavage); conditions: Ub-rhodamine substrate, DUB panel Fig. S2 A
Experimental: as §2, §3

USP7 = USP7 (Homo sapiens, UniProt Q93009); test: DUB biochemical assay (Ub-rhodamine cleavage); conditions: Ub-rhodamine substrate, DUB panel Fig. S2 A
Experimental: as §2, §3

USP25 = USP25 (Homo sapiens, UniProt Q9UHP3); test: DUB biochemical assay (Ub-rhodamine cleavage); conditions: Ub-rhodamine substrate, DUB panel Fig. S2 A
Experimental: as §2, §3

USP5 = USP5 (Homo sapiens, UniProt P45974); test: DUB biochemical assay (Ub-rhodamine cleavage); conditions: Ub-rhodamine substrate, DUB panel Fig. S2 A
Experimental: as §2, §3

USP15 = USP15 (Homo sapiens, UniProt Q9Y4E8); test: DUB biochemical assay (Ub-rhodamine cleavage); conditions: Ub-rhodamine substrate, DUB panel Fig. S2 A
Experimental: as §2, §3

USP37 = USP37 (Homo sapiens, UniProt Q86T82); test: DUB biochemical assay (Ub-rhodamine cleavage); conditions: Ub-rhodamine substrate, DUB panel Fig. S2 A
Experimental: as §2, §3

USP13 = USP13 (Homo sapiens, UniProt Q92995); test: DUB biochemical assay (Ub-rhodamine cleavage); conditions: Ub-rhodamine substrate, DUB panel Fig. S2 A
Experimental: as §2, §3

USP8 = USP8 (Homo sapiens, UniProt P40818); test: DUB biochemical assay (Ub-rhodamine cleavage); conditions: Ub-rhodamine substrate, DUB panel Fig. S2 A
Experimental: as §2, §3

USP28 = USP28 (Homo sapiens, UniProt Q96RU2); test: DUB biochemical assay (Ub-rhodamine cleavage); conditions: Ub-rhodamine substrate, DUB panel Fig. S2 A
Experimental: as §2, §3

Sequence of USP2 (O75604 whole entry, species assumed): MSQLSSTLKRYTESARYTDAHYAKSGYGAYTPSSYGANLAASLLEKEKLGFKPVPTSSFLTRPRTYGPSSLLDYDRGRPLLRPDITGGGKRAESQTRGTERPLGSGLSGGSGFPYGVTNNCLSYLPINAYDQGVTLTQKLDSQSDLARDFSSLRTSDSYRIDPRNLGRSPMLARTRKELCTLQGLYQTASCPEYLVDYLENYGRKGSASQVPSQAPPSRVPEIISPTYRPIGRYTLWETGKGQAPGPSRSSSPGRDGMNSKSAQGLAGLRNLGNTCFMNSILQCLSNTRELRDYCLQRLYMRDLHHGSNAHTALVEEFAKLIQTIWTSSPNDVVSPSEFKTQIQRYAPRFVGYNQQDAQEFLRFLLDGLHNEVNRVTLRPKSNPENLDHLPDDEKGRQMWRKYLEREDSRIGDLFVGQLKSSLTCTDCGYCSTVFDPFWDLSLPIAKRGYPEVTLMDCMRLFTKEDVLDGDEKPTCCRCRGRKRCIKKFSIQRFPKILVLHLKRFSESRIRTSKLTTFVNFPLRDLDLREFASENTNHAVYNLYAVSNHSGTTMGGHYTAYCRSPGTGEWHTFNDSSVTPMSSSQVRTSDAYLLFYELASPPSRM
Sequence of USP33 (Q8TEY7 whole entry, species assumed): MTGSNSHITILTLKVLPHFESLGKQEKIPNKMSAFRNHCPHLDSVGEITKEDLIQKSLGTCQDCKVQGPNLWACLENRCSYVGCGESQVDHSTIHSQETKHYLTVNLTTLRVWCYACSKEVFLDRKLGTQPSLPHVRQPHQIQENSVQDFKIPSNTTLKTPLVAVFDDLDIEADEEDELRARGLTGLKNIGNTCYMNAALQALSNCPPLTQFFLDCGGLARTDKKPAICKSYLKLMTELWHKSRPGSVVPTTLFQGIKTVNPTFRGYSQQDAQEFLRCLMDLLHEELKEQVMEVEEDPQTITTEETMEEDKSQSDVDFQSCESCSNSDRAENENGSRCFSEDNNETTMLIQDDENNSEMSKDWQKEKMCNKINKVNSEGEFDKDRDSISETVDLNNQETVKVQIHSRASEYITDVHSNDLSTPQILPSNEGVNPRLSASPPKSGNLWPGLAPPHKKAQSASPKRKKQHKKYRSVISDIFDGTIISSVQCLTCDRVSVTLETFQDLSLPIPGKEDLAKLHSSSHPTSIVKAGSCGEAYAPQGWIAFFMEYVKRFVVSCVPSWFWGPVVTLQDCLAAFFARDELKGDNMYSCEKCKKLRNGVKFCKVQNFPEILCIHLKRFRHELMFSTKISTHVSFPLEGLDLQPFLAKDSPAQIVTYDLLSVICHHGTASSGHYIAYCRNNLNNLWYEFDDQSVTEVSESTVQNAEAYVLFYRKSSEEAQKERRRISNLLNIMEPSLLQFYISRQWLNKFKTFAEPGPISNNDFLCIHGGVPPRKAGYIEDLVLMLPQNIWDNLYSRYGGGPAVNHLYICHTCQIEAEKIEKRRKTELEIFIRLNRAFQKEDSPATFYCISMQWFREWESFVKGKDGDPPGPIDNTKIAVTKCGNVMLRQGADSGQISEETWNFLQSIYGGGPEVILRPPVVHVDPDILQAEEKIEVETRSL
Sequence of USP7 (Q93009 whole entry, species assumed): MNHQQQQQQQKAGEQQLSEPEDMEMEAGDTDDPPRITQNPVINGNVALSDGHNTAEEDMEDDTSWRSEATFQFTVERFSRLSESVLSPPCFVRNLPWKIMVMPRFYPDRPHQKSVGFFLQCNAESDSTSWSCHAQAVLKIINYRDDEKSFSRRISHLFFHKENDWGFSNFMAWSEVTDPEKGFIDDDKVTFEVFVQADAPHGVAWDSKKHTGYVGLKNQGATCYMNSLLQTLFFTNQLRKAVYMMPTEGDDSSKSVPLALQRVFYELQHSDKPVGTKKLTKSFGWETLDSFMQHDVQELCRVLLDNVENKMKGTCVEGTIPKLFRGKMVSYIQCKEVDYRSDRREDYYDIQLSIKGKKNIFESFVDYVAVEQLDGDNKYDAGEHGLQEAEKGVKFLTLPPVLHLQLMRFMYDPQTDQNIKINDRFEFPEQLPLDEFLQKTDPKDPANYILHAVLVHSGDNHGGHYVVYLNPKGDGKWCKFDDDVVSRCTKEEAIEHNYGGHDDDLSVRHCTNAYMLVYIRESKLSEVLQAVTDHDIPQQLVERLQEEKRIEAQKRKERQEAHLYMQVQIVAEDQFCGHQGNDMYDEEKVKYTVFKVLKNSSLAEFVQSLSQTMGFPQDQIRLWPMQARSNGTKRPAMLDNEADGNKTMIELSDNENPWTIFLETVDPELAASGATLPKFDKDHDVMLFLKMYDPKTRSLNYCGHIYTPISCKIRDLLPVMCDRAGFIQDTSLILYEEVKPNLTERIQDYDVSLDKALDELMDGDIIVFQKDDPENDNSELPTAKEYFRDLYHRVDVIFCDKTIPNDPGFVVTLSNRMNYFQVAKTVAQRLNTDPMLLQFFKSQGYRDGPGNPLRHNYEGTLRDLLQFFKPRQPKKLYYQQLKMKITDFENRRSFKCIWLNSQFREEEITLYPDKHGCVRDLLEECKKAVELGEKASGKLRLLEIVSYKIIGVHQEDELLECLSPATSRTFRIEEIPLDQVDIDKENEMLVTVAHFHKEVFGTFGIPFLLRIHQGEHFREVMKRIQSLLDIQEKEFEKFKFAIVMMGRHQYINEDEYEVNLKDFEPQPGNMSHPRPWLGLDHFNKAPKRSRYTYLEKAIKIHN
Sequence of USP25 (Q9UHP3 whole entry, species assumed): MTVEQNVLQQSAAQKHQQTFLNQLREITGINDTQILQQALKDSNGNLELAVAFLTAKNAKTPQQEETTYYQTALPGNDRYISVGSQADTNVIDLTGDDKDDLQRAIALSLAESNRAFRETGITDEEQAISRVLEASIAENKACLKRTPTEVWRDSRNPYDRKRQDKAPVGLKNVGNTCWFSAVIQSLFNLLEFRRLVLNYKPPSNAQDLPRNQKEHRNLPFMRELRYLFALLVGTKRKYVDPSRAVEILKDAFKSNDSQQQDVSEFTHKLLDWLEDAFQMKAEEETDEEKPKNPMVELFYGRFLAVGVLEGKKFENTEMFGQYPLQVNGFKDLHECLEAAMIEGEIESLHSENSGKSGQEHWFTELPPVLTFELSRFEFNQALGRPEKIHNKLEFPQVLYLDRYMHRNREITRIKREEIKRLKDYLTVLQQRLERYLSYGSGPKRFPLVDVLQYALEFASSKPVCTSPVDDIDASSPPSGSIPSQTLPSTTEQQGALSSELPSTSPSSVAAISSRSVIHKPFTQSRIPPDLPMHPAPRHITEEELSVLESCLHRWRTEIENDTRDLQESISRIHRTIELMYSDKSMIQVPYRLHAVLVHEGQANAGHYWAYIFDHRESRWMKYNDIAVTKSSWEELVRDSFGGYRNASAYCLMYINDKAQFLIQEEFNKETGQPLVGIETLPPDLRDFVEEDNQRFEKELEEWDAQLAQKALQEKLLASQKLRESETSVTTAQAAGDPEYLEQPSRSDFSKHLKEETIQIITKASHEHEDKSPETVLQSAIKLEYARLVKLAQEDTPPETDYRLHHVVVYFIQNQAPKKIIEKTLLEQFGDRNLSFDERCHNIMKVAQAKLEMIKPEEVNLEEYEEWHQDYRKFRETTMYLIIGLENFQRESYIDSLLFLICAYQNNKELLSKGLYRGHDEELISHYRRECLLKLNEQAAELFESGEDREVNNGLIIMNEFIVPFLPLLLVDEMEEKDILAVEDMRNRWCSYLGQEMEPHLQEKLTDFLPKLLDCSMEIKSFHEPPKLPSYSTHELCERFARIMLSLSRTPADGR
Sequence of USP47 (Q96K76 whole entry, species assumed): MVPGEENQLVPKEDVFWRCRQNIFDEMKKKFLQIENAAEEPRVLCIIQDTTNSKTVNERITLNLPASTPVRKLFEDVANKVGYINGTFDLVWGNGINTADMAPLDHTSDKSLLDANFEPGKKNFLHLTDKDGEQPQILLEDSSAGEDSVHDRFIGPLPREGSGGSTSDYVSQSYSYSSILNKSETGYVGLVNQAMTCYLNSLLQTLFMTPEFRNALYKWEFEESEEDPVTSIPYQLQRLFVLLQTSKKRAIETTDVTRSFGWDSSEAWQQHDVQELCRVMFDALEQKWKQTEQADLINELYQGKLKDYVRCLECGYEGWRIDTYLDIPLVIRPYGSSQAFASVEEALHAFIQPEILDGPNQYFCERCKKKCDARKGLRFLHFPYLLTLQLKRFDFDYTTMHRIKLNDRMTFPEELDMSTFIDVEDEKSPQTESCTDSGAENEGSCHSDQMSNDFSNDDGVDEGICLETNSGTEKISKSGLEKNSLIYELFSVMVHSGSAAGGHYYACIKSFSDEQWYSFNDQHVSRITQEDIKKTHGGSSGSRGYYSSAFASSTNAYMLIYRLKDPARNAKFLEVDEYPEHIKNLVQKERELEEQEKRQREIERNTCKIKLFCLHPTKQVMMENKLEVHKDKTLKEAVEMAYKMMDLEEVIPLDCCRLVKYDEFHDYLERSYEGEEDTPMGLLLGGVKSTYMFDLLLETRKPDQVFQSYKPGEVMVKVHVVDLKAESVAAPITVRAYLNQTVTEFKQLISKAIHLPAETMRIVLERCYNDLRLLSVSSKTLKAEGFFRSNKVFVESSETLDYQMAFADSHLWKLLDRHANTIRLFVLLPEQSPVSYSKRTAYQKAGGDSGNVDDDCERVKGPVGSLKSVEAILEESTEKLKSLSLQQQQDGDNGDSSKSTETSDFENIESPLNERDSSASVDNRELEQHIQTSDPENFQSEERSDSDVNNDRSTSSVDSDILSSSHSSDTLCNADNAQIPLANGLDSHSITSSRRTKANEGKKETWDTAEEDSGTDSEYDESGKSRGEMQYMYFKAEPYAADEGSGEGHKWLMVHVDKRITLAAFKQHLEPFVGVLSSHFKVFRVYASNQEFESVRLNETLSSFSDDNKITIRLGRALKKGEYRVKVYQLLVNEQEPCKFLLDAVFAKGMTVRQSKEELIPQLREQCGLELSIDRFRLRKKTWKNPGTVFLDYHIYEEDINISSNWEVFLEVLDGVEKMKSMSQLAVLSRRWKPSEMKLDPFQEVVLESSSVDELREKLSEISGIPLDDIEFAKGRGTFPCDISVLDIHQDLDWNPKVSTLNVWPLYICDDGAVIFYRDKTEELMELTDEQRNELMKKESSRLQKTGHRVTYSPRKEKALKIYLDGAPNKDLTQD

**Q.** What does the source list for `Cc1nc2c(C(O)C(=O)N3CC4=C(C3)CN(S(=O)(=O)c3cnc5c(c3)OCCO5)C4)cccc2o1` (centres unmarked) [FT709]?
**A.** IC50 (CEP55): 0.131 µM; ZNF598, MKRN1 and MKRN2 protein levels (ZNF598, MKRN1 and MKRN2): smaller reduction in ZNF598 levels but was again accompanied by parallel reductions in MKRN1 and 2; ZNF598 protein level (ZNF598): reduction of ZNF598; FT709-dependent loss of ZNF598 versus MKRN2 (ZNF598 and MKRN2): loss of ZNF598 is minor compared with MKRN2; polyA read-through (RFP:GFP ratio) [1]: recapitulate polyA read-through; Protein abundance change in SILAC proteomic datasets (HCT116 cells): de-enrichment of ZNF598 and MKRN2; IC50 (USP2): > 26.7 µM; IC50 (USP11): > 33.3 µM; IC50 (USP18): > 27.9 µM; IC50 (USP10): > 33.3 µM; IC50 (USP12): > 33.3 µM; IC50 (USP33): > 26.7 µM; IC50 (USP47): > 33.3 µM; IC50 (USP36): > 26.7 µM; IC50 (USP24): > 26.7 µM; IC50 (USP1): > 25.8 µM; IC50 (USP22): > 26.7 µM; IC50 (USP4): > 33.3 µM; IC50 (USP7): > 25.8 µM; IC50 (USP25): > 26.7 µM; IC50 (USP5): > 33.3 µM; IC50 (USP15): > 26.7 µM; IC50 (USP37): > 33.3 µM; IC50 (USP13): > 26.7 µM; IC50 (USP8): > 25 µM; IC50 (USP28): > 26.7 µM
